According to publication PMC9303312, “Balancing Histone Deacetylase (HDAC) Inhibition and Drug‐likeness: Biological and Physicochemical Evaluation of Class I Selective HDAC Inhibitors” (Chemmedchem, 2022):
Converted amounts (≈) assume the structure as drawn. Like-named read-outs stand apart in the source and are kept apart here.

Tests used:
[1] = Solubility in PBS buffer by OECD flask method with HPLC quantification; format: physicochemical
[2] = molecular target: T1, HDAC1 (Homo sapiens, UniProt Q13547); assay: In vitro HDAC inhibition preincubation assay (ZMAL substrate)
[3] = molecular target: T2, HDAC2 (Homo sapiens, UniProt Q92769); assay: as above
[4] = molecular target: HDAC3/NcoR2 (Homo sapiens, UniProt O15379); assay: as above
[5] = molecular target: T3, human recombinant HDAC6 (Homo sapiens, UniProt Q9UBN7); assay: as above
T3 sequence (Q9UBN7 1-1215): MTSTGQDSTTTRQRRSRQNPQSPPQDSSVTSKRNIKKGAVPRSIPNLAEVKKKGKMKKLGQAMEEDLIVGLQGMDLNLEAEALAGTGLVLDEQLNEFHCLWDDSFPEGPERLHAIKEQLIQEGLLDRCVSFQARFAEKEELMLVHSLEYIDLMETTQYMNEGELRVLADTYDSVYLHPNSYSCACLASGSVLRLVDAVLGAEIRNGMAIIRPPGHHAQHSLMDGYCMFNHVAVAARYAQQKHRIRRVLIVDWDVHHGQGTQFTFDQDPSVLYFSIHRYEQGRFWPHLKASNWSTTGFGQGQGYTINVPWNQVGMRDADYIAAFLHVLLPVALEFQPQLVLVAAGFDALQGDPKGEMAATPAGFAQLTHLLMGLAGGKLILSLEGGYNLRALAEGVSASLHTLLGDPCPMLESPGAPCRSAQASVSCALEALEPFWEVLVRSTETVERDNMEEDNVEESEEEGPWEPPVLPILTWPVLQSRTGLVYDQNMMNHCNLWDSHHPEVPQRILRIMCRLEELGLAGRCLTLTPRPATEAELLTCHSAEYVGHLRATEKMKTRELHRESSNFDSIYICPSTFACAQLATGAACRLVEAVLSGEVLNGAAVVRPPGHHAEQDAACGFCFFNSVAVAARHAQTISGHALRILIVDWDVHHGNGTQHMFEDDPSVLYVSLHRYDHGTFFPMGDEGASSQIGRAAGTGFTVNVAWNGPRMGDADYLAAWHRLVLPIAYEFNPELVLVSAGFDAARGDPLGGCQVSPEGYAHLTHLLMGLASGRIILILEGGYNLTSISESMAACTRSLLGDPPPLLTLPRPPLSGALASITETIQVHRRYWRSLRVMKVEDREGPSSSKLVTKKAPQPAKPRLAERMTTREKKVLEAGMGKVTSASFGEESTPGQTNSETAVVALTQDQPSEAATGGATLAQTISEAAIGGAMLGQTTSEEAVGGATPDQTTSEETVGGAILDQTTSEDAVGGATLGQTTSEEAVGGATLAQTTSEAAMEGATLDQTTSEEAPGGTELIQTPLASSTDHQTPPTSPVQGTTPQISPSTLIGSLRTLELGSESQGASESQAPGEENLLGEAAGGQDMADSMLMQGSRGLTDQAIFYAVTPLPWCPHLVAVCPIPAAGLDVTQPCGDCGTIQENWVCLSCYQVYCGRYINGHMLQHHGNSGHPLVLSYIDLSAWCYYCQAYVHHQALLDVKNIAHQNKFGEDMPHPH

[6] = LogD7.4 by OECD slow-stirring method with HPLC quantification; conditions: 1-octanol/PBS buffer (mutually saturated)
[7] = system: T‐47D breast cancer cell line; assay: WST-8 cell viability assay; conditions: Homo sapiens, T47D, 120 h, read-out: IC50 T‐47D
[8] = system: MCF‐7 breast cancer cell line; assay: WST-8 cell viability assay; conditions: Homo sapiens, MCF7, 120 h, read-out: IC50 MCF‐7
[9] = system: BT‐474 breast cancer cell line; assay: WST-8 cell viability assay; conditions: Homo sapiens, BT-474, 120 h, read-out: IC50 BT‐474
[10] = system: acetylated α‐tubulin (HDAC6 activity) in MCF‐7 cells; assay: Western blot target engagement in MCF-7 cells: acetylated α-tubulin; format: cell-based, human; conditions: MCF-7 cell lysates after 24-hour treatment
[11] = system: MCF‐7 cells; assay: Modified wound healing (migration) assay; format: cell-based, human; conditions: MCF-7, 10 μM, followed over 97 h, compared to DMSO control
Method: Migration assay. 3D printed (size: 0.5 mm gap) culture-inserts (custom made) were used for pre-
After preincubation with DMSO (1%) or HDACi (10µM) for 24 h medium was removed, wells were washed once with PBS and fresh FCS-free medium with same inhibitor added.
a Axiovert 200 microscope (Carl-Zeiss, Jena, Germany). Migration speed was quantified as reduced scratch wound over time.

[12] = molecular target: T2, HDAC2; assay: IC50-shift experiments (varied preincubation time); format: biochemical; design: purchased BPS Bioscience 50052; conditions: triplicates
Method: into OptiPlate-96 black micro-plates (PerkinElmer).
Afterwards, the fluorogenic substrate ZMAL
The total assay volume (50 µL,
max. […] Subsequently, 50 µL trypsin solution (0.4
enzymes and the respective inhibitor dilutions were preincubated at 20 °C for 5 to 120 minutes.
Afterwards, the assay protocol was continued as stated above. Compounds were tested in
triplicates and the assay was rerun if necessary. The respective IC50 values and P95 confidence
intervals were determined using Prism 9 for MacOS.

[13] = molecular target: T1, HDAC1; assay: Binding kinetics via the Progression Method; format: biochemical; conditions: relationship between kobs and [I]; triplicates
Method: (§1) To determine the binding mechanism at the respective HDAC isoform, a series of progression curves were generated, using fixed concentrations of enzyme, substrate, and different inhibitor concentrations. The in situ AMC release was monitored continuously by fluorescence readings recorded every 30 s for 60 or 90 min at 37 °C. The data of each progression curve were fitted to the appropriate equation (Prism 9.1.0 for MacOS). For inhibitors showing slow‐binding Mechanism I&II (Figure 5) time‐dependent product formation follows Eq. 1: (Eq. 1) P=vsst+vin-vss/kobs1-e^-kobst
(§2) where [P] is the amount of generated AMC, which directly correlates with the amount of deacetylated substrate over time [t]. V in and v ss are the initial and final steady‐state velocities of product formation and k obs is the apparat first‐order rate constant for the conversion from the initial velocity to the steady‐state velocity. It characterizes the formation of an enzyme–inhibitor equilibrium.
Fast‐on/fast‐off inhibitors. […] In this case Eq. 1 simplifies as follows: (Eq. 2) P=vsst
Therefore, the deacetylation rate in absence (v 0) and presence (v i) of the inhibitor is constant over time. […] [I] and [S] are the inhibitor and substrate concentrations, respectively and K m is the Michaelis‐Menten constant.
Slow‐binding inhibitors. The slow‐binding Mechanisms I & II are distinguished by their respective relationships between k obs and the inhibitor concentration. For the single‐step slow‐binding Mechanism I the relationship between inhibitor concentration and k obs is linear. The association and dissociation rate constants (k 1 & k −1, see Figure 5) can be obtained by fitting k obs as a function of [I] to Eq. 4. (Eq. 4) kobs=k-1+k11+S/KmI
The secondary association and dissociation rate constants k 2 & k −2 (see Figure 5) as well as the equilibrium dissociation constant K i,1 of the initial inhibitor‐enzyme encounter complex [EI] can be obtained by fitting k obs as a function of [I] (Eq. 5. (Eq. 5) kobs=k-2+k2/I+Ki,11+S/KmI
Determination of binding kinetics via the Progression Method.[14] HDAC1 and HDAC3
deacetylase activities were evaluated at varying inhibitor concentrations. Appropriate inhibitor
concentrations were chosen based on the previously determined IC50 values. To ensure substrate
excess during the experiment, the substrate concentration was set to five times Km. Km was
determined using a series of substrate concentrations.
For the progression curves, the
respective enzyme was incubated with the fluorogenic substrate and inhibitor in assay buffer
(§3) 90 minutes at 37°C. The relationship between AMC concentration and relative fluorescence units
(RFU) was determined and the measured RFU were transformed into the respective AMC
concentration in µM. […]

[14] = molecular target: HDAC3 (Homo sapiens, UniProt O15379); assay: Binding kinetics via the Progression Method; format: biochemical
Method: as §1, §2
Fast‐on/fast‐off inhibitors. […]
deacetylase activities were evaluated at varying inhibitor concentrations. […]
concentrations were chosen based on the previously determined IC50 values. […]
determined using a series of substrate concentrations. […]
as §3
(RFU) was determined and the measured RFU were transformed into the respective AMC […]

[15] = 25 °C, pH 7.4, aqueous buffer, thermodynamic from solid, pH=7.4, flask method, 25 °C, 72 h, mean ±SD, read-out: Solubility
[16] = pH 7.4, LogD7.4, slow-stirring method, 1-octanol/PBS buffer pH 7.4, 25 °C, 48 h

HDAC3/NcoR2, sequence (O15379 whole entry): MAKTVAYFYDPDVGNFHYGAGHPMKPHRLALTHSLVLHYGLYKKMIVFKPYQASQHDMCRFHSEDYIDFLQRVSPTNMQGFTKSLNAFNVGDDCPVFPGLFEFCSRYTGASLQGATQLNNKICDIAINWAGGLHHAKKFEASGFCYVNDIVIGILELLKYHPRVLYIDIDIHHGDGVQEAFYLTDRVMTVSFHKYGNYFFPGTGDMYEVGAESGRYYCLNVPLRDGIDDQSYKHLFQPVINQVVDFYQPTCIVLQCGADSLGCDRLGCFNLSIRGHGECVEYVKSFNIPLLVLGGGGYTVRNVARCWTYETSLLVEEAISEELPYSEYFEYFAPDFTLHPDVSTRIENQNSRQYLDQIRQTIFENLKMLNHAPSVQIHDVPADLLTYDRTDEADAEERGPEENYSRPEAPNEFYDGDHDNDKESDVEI
HDAC3/NcoR2, sequence (Q9Y618 395-489 partner limits assumed): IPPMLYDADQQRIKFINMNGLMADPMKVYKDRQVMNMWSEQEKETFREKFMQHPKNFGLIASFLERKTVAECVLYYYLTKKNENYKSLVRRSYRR
T2 sequence (Q92769 whole entry): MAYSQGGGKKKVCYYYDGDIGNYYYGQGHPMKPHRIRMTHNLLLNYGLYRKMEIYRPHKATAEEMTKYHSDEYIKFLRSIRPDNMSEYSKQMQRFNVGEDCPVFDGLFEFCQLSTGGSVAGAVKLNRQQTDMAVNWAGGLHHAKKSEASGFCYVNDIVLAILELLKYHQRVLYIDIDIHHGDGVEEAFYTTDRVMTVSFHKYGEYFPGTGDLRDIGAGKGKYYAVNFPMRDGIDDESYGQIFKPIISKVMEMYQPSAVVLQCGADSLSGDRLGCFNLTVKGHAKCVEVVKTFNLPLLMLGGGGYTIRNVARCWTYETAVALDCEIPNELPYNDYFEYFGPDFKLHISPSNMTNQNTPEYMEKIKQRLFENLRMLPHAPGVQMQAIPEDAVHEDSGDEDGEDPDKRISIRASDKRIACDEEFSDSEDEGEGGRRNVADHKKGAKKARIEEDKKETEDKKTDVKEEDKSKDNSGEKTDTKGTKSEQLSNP
T1 sequence (Q13547 whole entry): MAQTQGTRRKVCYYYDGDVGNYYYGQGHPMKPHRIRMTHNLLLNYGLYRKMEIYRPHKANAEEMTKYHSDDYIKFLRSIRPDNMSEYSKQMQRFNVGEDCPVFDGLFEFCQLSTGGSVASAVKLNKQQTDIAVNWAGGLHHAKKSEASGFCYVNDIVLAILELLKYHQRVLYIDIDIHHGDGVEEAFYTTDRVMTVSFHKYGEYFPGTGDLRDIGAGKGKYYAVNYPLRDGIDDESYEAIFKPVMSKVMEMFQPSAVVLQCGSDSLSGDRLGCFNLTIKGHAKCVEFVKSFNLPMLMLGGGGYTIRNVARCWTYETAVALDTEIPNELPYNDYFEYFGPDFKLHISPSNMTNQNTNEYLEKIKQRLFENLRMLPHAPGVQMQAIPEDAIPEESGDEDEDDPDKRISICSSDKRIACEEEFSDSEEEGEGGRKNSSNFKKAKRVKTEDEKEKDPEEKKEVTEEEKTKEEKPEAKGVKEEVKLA
HDAC3, sequence (O15379 whole entry): as the sequence (O15379 whole entry) above
HDAC3, sequence (Q9Y618 395-489 partner limits assumed): as the sequence (Q9Y618 395-489 partner limits assumed) above

Structure (SMILES) | solubility at 72 h [1, 15] | IC50 [2] | IC50 [3] | IC50 [4] | IC50 [5] | logD at 48 h [6, 16] | other results
CC(=O)Nc1ccc(C(=O)Nc2cc(-c3ccccc3)ccc2N)cc1 [6 a] | 1.49 ± 0.14 µg/mL (≈ 4.31 µM) | 0.0045 ± 0.0001 µM | 0.0514 ± 0.0049 µM | 3.96 µM | > 10 µM | 2.63 | –
CC(=O)Nc1ccc(C(=O)Nc2cc(-c3ccc(F)cc3)ccc2N)cc1 [6 b] | 0.45 ± 0.04 µg/mL (≈ 1.24 µM) | 0.0044 ± 0.0001 µM | 0.0447 ± 0.0069 µM | 2 µM | > 10 µM | 3.41 | –
CC(=O)Nc1ccc(C(=O)Nc2cc(-c3cccs3)ccc2N)cc1 [6 c] | 0.74 ± 0.01 µg/mL (≈ 2.11 µM) | – | – | – | – | 2.8 | –
CC(=O)Nc1ccc(C(=O)Nc2cc(-c3cccnc3)ccc2N)cc1 [6 e] | 37.7 ± 3.61 µg/mL (≈ 109 µM) | 0.0767 ± 0.0092 µM | 0.101 ± 0.0054 µM | 0.636 ± 0.0495 µM | > 10 µM | 1.7 | –
CC(=O)Nc1ccc(C(=O)Nc2cc(-c3ccccn3)ccc2N)cc1 [6 f] | 42 ± 0.19 µg/mL (≈ 121 µM) | 0.207 ± 0.0044 µM | 0.333 ± 0.0051 µM | 17.4 µM | > 10 µM | 1.77 | –
CC(=O)Nc1ccc(C(=O)Nc2cc(-c3ccc(F)nc3)ccc2N)cc1 [6 g] | 7.66 ± 0.08 µg/mL (≈ 21 µM) | 0.0935 ± 0.0024 µM | 0.118 ± 0.004 µM | 0.767 ± 0.0317 µM | > 10 µM | 1.97 | –
CC(=O)Nc1ccc(C(=O)Nc2cc(-c3cccnc3F)ccc2N)cc1 [6 h] | 1.58 ± 0.14 µg/mL (≈ 4.34 µM) | 0.153 ± 0.0221 µM | 0.228 ± 0.0078 µM | 2.87 µM | > 10 µM | 1.79 | –
CC(=O)Nc1ccc(C(=O)Nc2cc(-c3ccnc(F)c3)ccc2N)cc1 [6 i] | 3.72 ± 0.44 µg/mL (≈ 10.2 µM) | 0.329 ± 0.0208 µM | 0.211 ± 0.0054 µM | 5.87 µM | > 10 µM | 2.2 | –
CN(C)c1ccc(C(=O)N(CC(=O)NCc2ccccc2)Cc2ccc(C(=O)Nc3cc(-c4ccncc4)ccc3N)cc2)cc1 [10 a] | – | 0.0418 ± 0.0002 µM | 0.1 ± 0.0026 µM | > 6.67 µM | – | – | IC50 [7]: 2.57 ± 0.93 µM; IC50 [8]: 3.24 ± 0.82 µM; IC50 [9]: 3.93 ± 0.56 µM
CN(C)c1ccc(C(=O)N(CC(=O)NC2CCCCC2)Cc2ccc(C(=O)Nc3cc(-c4ccncc4)ccc3N)cc2)cc1 [10 b] | 1.99 ± 0.04 µg/mL (≈ 3.29 µM) | 0.0411 ± 0.0037 µM | 0.0855 ± 0.0116 µM | > 3.33 µM | > 10 µM | 2.68 | IC50 [7]: 1.45 ± 0.09 µM; IC50 [8]: 4.33 ± 1.54 µM; IC50 [9]: 2.93 ± 0.43 µM
CN(C)c1ccc(C(=O)N(CC(=O)NC(C)(C)C)Cc2ccc(C(=O)Nc3cc(-c4ccncc4)ccc3N)cc2)cc1 [10 c] | 7.48 ± 0.33 µg/mL (≈ 12.9 µM) | – | 0.0593 ± 0.0079 µM | 16.8 µM | > 10 µM | 2.29 | acetylated α‐tubulin (western blot) [10]: non‐detectable; effect on cell migration (wound closure) [11]: attenuated cell migration comparably and significantly; effect on cell migration (wound closure) ([11]; listed as LSH‐A54): attenuated cell migration significantly; IC50 [7]: 1.58 ± 0.48 µM; IC50 [8]: 1.62 ± 0.32 µM; IC50 [9]: 2.55 ± 0.4 µM; IC50 ([12]; HDAC2 IC50, preincubation 5 min, preincubation time 5 min at 20°C): 0.117 µM; IC50 ([12]; HDAC2 IC50, preincubation 15 min, preincubation time 15 min at 20°C): 0.106 µM; IC50 ([12]; HDAC2 IC50, preincubation 30 min, preincubation time 30 min at 20°C): 0.109 µM; IC50 ([12]; HDAC2 IC50, preincubation 60 min, preincubation time 60 min at 20°C): 0.084 µM; IC50 ([12]; HDAC2 IC50, preincubation 120 min, preincubation time 120 min at 20°C): 0.0781 µM
CC(=O)Nc1ccc(C(=O)Nc2ccccc2N)cc1 [CI‐994, tacedinaline, reference compound] | 200 ± 1.8 µg/mL (≈ 743 µM) | – | – | – | – | 0.84 | –
Nc1ccccc1NC(=O)c1ccc(CNC(=O)OCc2cccnc2)cc1 [entinostat, reference compound] | – | – | – | – | – | – | binding mechanism at HDAC1 [13]: slow-binding Mechanism II; acetylated α‐tubulin (western blot) [10]: non‐detectable; effect on cell migration (wound closure) [11]: no significant effect on cell migration; IC50 [7]: 2.91 ± 0.89 µM; IC50 [8]: 8.98 ± 3 µM; IC50 [9]: 7.09 ± 1 µM
O=C(CCCCCCC(=O)Nc1ccccc1)NO [vorinostat, reference compound] | 255 ± 3.71 µg/mL (≈ 965 µM) | – | – | – | – | 0.99 | solubility at 72 h ([1]; 25 °C, pH 7.4, aqueous buffer, thermodynamic from solid, PBS buffer pH 7.4, single experiment II, read-out: Solubility (II)): 259 µg/mL (≈ 980 µM); solubility at 72 h ([1]; pH 7.4, PBS buffer pH 7.4, mean of two experiments (SD 0.00371), read-out: Solubility): 255 µg/mL (≈ 966 µM); solubility at 72 h ([1]; pH 7.4, PBS buffer pH 7.4, single experiment I, read-out: Solubility (I)): 252 µg/mL (≈ 952 µM); binding mechanism at HDAC1 [13]: fast‐on/fast‐off binding kinetic; binding mechanism at HDAC3 [14]: fast‐on/fast‐off binding kinetic; logD at 48 h ([6]; pH 7.4, LogD(7.4) (I), single slow-stirring experiment I): 1.01; logD at 48 h ([6]; pH 7.4, LogD(7.4) (II), single slow-stirring experiment II): 0.962; logD at 48 h ([6]; pH 7.4, LogD(7.4) (III), single slow-stirring experiment III): 0.999
